Data from US8227431B2, “Nucleoside derivatives” (Hetero Drugs Limited, priority 2008, dated 2012).

What was measured:
HIV-1-93IN101 = assay: P24 assay (viral p24 ELISA); assay type: cell-based; details: Cell line Supt-1, Virus HIV-1-93IN101; for IC50: Human immunodeficiency virus 1, SUP-T1, p24 ELISA about 72 hours post infection, read-out: Inhibitory concentration 50 (IC50)
Description: Viral p24 was measured after about 72 hours of post infection in presence of drugs using ABL p24 ELISA kit. 0.5 millions cells/well were taken into the 24 well plates and added increasing concentrations of drugs. 1 ng/ml of HIV-1 virus was added to each well and incubated for overnight at 37° C. (37° C. and 5% CO2). After about 16 hours incubation media was changed and added fresh media and cultured for about 72 hours. P24 was quantified at 4th day of post-infection using ABL kit according to manufacturer's instructions. The above described examples were tested in the two biological assays as described above and some compounds were found following results as shown in table 2. Cell line Supt-1; Virus: HIV-1-93IN101

[1] = Cell viability assay (MTT); assay type: cell-based; details: human, Supt-1 cells, Cell line Supt-1, about 14 hours incubation, read-out: Cytotoxicity concentration (CC50)
Description: Reduction of 3-(4,5-dimethylthiozol-2-yl)-2,5-diphenyltetrazolium bromide (MTT, sigma) is chosen as an optimal mend point of cell viability measurement (Mosmann, 1983; Cole, 1986; alley et al., 1988). Cells (0.2×10^6 cells per well) were seeded in 96-well plates. Increasing concentrations of compound were added to the cells and incubated at 37° C. for about 14 hours in a CO2 Incubator with 5% CO2. The media was replaced with a fresh growth medium along with 20 μL of 5 mg/ml 3-(4,5-dimethylthiazol-2-yl)-2,5-diphenyltetrazolium bromide (MTT, Sigma). After incubation for about 4 hours in a humidified atmosphere, the media was removed and 200 μL of 0.1N acidic isopropyl alcohol was added to the wells to dissolve the MTT-formazan crystals. The absorbance was recorded at 570 nm, immediately after the development of purple colour. Each experiment was conducted in triplicate and the data are represented as average, with standard deviation. Percent viability of the cells was computed with reference to the absorbance of reduced MTT in the experiments conducted in absence of any compound. The above described examples were tested in the two biological assays as described above and some compounds were found following results as shown in table 2. Cell line Supt-1; Virus: HIV-1-93IN101

Row | IC50 (HIV-1-93IN101) [mM] | Structure (SMILES) | Therapeutic Index (TI): CC50/IC50 (HIV-1-93IN101) | CC50 [1] [mM]
1 | > 1 | C[C@]1(F)[C@H](n2ccc(=O)[nH]c2=O)O[C@H](CO)[C@@]1(C)O [Example 22, 1-((2R,4R)-3-fluoro-tetrahydro-4-hydroxy-5-(hydroxymethyl)-3,4-dimethylfuran-2-yl)pyrimidine-2,4(1H,3H)-dione] | >1 | > 1
2 | > 1 | C[C@]1(F)[C@H](n2ccc(N)nc2=O)O[C@H](CO)[C@@]1(C)O [Example 23, 4-amino1-((2R,4R)-3-fluoro-tetrahydro-4-hydroxy-5-(hydroxymethyl)-3,4-dimethylfuran-2-yl)pyrimidin-2(1H)-one] | >1 | > 1
3 | 0.3 | CC1(O)[C@@H](CO)OC(n2cnc3c(NC4CC4)ncnc32)[C@]1(C)F (stereo partly drawn) [Example 16, (2R,4R)-5-(6-(cyclopropylamino)-9H-purin-9yl)-4-fluoro-tetrahydro-2-(hydroxymethyl)-3,4-dimethylfuran-3-ol] | 1.4 | 0.424
4 | > 1 | C[C@]1(F)C(n2cnc3c(N)ncnc32)O[C@H](CO)[C@]1(C)O (stereo partly drawn) [Example 2A, (2R,3S,4R)-5-(6-amino-9H-purin-9-yl)-4-fluoro-tetrahydro-2-(hydroxymethyl)-3,4-dimethylfuran-3-ol] | >1 | > 1
